Measured values: patent US10703701B2, “Fluoroalkyl, fluoroalkoxy, phenoxy, heteroaryloxy, alkoxy, and amine 1,4-benzoquinone derivatives for treatment of oxidative stress disorders” (PTC Therapeutics, Inc., priority 2015, dated 2020)

Columns and labels:
[1] = test system: Q7 cells (ST HDH Q7/7; immortalized mouse striatal cells); test: Q7 cystine deprivation cell survival assay (96-well, Calcein AM); assay type: cell-based; conditions: for EC50: Mus musculus, rescue of Q7 cells from cystine deprivation, 18 hours, Calcein AM fluorescence, 96-well
Procedure: (§1) In neuronal cells excess extracellular glutamate inhibits the cystine/glutamate antiporter leading to intracellular cysteine depletion, GSH depletion, ROS production and cell death, a phenomenon termed oxidative glutamate toxicity or oxytosis. Q7 cells (ST HDH Q7/7; immortalized mouse striatal cells) challenged with cystine-free media recapitulate this phenotype. An initial screen was performed to identify compounds effective in rescuing Q7 cells from death resulting from cystine deprivation. This method is further described in Yonezawa et al., J. Neurochem 67, 566-573 (1996), and Li et al., J Neurosci., 23, 5816-5826 (2003).
(§2) DMEM (Catalog no. 11995-040), DMEM without Cystine (Catalog no. 21013-024), Penicillin-streptomycin mix, L-Glutamine and Pyruvate were purchased from Gibco. Fetal Bovine Serum was obtained from Mediatech, Inc. Mouse striatum derived ST HDH Q7/7 (Q7) cells were obtained from Dr. M. MacDonald (Massachusetts General Hospital). Methionine and Vitamin K2 were purchased from Sigma Aldrich. Calcein AM was purchased from Anaspec. Geneticin (G418) Sulfate was purchased from Santa Cruz Biotechnology. Cell culture medium (Growth medium) was made by combining 50 mL Fetal Bovine Serum, 100 U/mL penicillin, 100 microgram/mL streptomycin and 400 microgram/mL Geneticin (G418) Sulfate; DMEM was added to make the volume up to 500 mL. Assay medium (without Cystine) was made by combining 50 mL Fetal Bovine Serum, 100 U/mL penicillin, 100 microgram/mL streptomycin, 4 mM L-Glutamine, 1 mM Pyruvate and 30 mg/L Methionine; DMEM without Cystine was added to make the volume up to 500 mL. During the course of the experiments, these solutions were stored at 4° C. The cells were grown in 10-cm diameter tissue culture-treated dishes. Every fourth day, the cells were subcultured by trypsinization and re-seeding at a cell density of 500,000 cells per dish.
(§3) Test samples were supplied in 1.5 mL glass vials. The compounds were diluted with an appropriate volume of DMSO to result in a 1 mM stock solution. Once dissolved, they were stored at −20° C.
Test samples were screened according to the following protocol:
Q7 cells were cultured routinely as described herein. For cell survival assays, cells were seeded in clear 96-well tissue culture-treated polystyrene plates by resuspending a cell suspension at a density of 100,000 cells/mL in growth medium, then dispensing 100 microliters of cell suspension per well using an electronic multichannel pipette, corresponding to 10,000 cells/well. The cell-containing plates were incubated 5 hours at 33° C. in an atmosphere with 95% humidity and 5% CO2 to allow attachment of the cells to the culture plate.
Test compounds were thawed, and 2 microliters of a 1 mM stock solution was diluted in a microtiter plate well containing 98 microliters of 10% DMSO in H2O, resulting in a 20 micromolar master solution. Serial dilutions from the master solution were made in 10% DMSO. The period between the single dilution steps was kept as short as possible (generally less than 30 seconds). 5 hours after cell seeding into the 96-well assay plate, the cell culture medium was removed by inverting the plates and gently patted onto paper towel. The plates were washed once with 100 microliters of PBS containing Ca^++ and Mg^++. PBS containing Ca^++ and Mg^++ were removed by inverting the plates and gently patted onto a paper towel. After washing the wells, 100 microliters of assay medium without Cystine was dispensed and then treated with 10 microliters of the various compound dilutions in triplicates. Final concentration of DMSO in the well was 1%.
After medium change to cystine-free medium and compound addition, cell plates were incubated at 33° C. in an atmosphere of 5% CO2 and 95% humidity. 18 hours later, the medium from all plates was removed by inverting the plates and gently tapping the plate onto a paper towel. […]

[2] = test system: Q7 cells (ST HDH Q7/7; immortalized mouse striatal cells); test: 384-Well Cell Titer Glo (CTG) Q7 Cystine Deprivation Survival Assay; assay type: cell-based; conditions: read-out: Q7 Cystine Free CTG 384 CSA (EC50)
Procedure: as §1
as §2, with “21013-024), PBS (Phosphate buffered saline),” for “21013-024),”, “Cell Titer Glo 2.0” for “Calcein AM”, “Promega.” for “Anaspec.”
as §3
Test Samples were Screened According to the Following Protocol:
Q7 cells were cultured routinely as described herein. For 384-well cell survival assays, cells were seeded in clear bottom, black wall 384-well tissue culture-treated polystyrene plates by resuspending a cell suspension at a density of 50,000 cells/mL in growth medium, then dispensing 60 microliters of cell suspension per well using either an electronic multichannel pipette or a Multidrop™ Combi Reagent Dispenser (ThermoFisher Scientific), corresponding to 3,000 cells/well. The cell-containing plates were incubated 5 hours at 33° C. in an atmosphere with 95% humidity and 5% CO2 to allow attachment of the cells to the culture plate.
5 hours after cell seeding into the 384-well assay plate, the cell culture medium was replaced by washing 2 times with 70 microliters/well PBS (without Ca^++ and Mg^++) using a BioTek ELx405 plate washer. After the final aspiration, 60 microliters/well of assay medium (without cystine) was added using the Multidrop Combi Reagent Dispenser. Within 45 minutes, test compounds were then added to varying final concentrations using the Tecan D300e Digital Dispenser, with subsequent back-filling with DMSO diluent to a final concentration of 0.3% (v/v).
After medium change to cystine-free medium and compound addition, cell plates were incubated at 33° C. in an atmosphere of 5% CO2 and 95% humidity. 18 hours later, the plates were equilibrated to room temperature for 15 minutes. Then, 10 microliters/well of room temperature Cell Titer Glo 2.0 reagent was added using the Multidrop Combi Reagent Dispenser. After 15 minutes of incubation at room temperature, the luminescence (100 ms integration time) per well was determined using the BioTek Synergy plate reader. Data was imported into Microsoft Excel. […]

[3] = rescue of Q7 cells from cystine deprivation, 18 hours, Cell Titer Glo luminescence, 384-well

SMILES	EC50 [1]	EC50 [2, 3]	EC50 ([2]; 18 h)	other results
CC1=C(C)C(=O)C(CCCCCCCCOCC(F)(F)F)=C(C)C1=O [Example 1, 2,3,5-trimethyl-6-(8-(2,2,2-trifluoroethoxy)octyl)cyclohexa-2,5-diene-1,4-dione]	500 to 1000 nM	100 to 500 nM		
CC1=C(C)C(=O)C(CCCCCCCCC(F)(F)F)=C(C)C1=O [Example 2, 2,3,5-trimethyl-6-(9,9,9-trifluorononyl)cyclohexa-2,5-diene-1,4-dione]	500 to 1000 nM	100 to 500 nM		
COCCCCCCCCC1=C(C)C(=O)C(C)=C(C)C1=O [Example 3, 2-(8-methoxyoctyl)-3,5,6-trimethylcyclohexa-2,5-diene-1,4-dione]	500 to 1000 nM	100 to 500 nM		
CC1=C(C)C(=O)C(CCCCCCCCCCC(F)(F)F)=C(C)C1=O [Example 4, 2,3,5-trimethyl-6-(11,11,11-trifluoroundecyl)cyclohexa-2,5-diene-1,4-dione]	< 500 nM	< 100 nM		
CC1=C(C)C(=O)C(CCCCCCCCCCOCC(F)(F)F)=C(C)C1=O [Example 5, 2,3,5-trimethyl-6-(10-(2,2,2-trifluoroethoxy)decyl)cyclohexa-2,5-diene-1,4-dione]	< 500 nM	< 100 nM		
COCCCCCCCCCCC1=C(C)C(=O)C(C)=C(C)C1=O [Example 6, 2-(10-methoxydecyl)-3,5,6-trimethylcyclohexa-2,5-diene-1,4-dione]	500 to 1000 nM	< 100 nM		
CC1=C(C)C(=O)C(C(C)C)=C(CCCCCCCCCCC(F)(F)F)C1=O [Example 7, 2-isopropyl-5,6-dimethyl-3-(11,11,11-trifluoroundecyl)cyclohexa-2,5-diene-1,4-dione]	< 500 nM	100 to 500 nM		
CC1=C(C)C(=O)C(NS(C)(=O)=O)=C(CCCCCCCCCCC(F)(F)F)C1=O [Example 8, N-(4,5-dimethyl-3,6-dioxo-2-(11,11,11-trifluoroundecyl)cyclohexa-1,4-dien-1-yl)methanesulfonamide]		< 100 nM		
CC1=C(C)C(=O)C(CCCCCCCCCCOC(C)C)=C(C)C1=O [Example 9, 2-(10-isopropoxydecyl)-3,5,6-trimethylcyclohexa-2,5-diene-1,4-dione]			< 100 nM	
CCOCCCCCCCCC1=C(C)C(=O)C(C)=C(C)C1=O [Example 10, 2-(8-ethoxyoctyl)-3,5,6-trimethylcyclohexa-2,5-diene-1,4-dione]			< 100 nM	
CC1=C(C)C(=O)C(CCCCCCCCCCOCC(C)C)=C(C)C1=O [Example 11, 2-(10-isobutoxydecyl)-3,5,6-trimethylcyclohexa-2,5-diene-1,4-dione]			< 100 nM	
CCCOCCCCCCCCCCC1=C(C)C(=O)C(C)=C(C)C1=O [Example 12, 2,3,5-trimethyl-6-(10-propoxydecyl)cyclohexa-2,5-diene-1,4-dione]			< 100 nM	
CC1=C(C)C(=O)C(CCCCCCCCCCOc2ccccc2)=C(C)C1=O [Example 13, 2,3,5-trimethyl-6-(10-phenoxydecyl)cyclohexa-2,5-diene-1,4-dione]			< 100 nM	
CC1=C(C)C(=O)C(CCCCCCCCOC(C)C)=C(C)C1=O [Example 14, 2-(8-isopropoxyoctyl)-3,5,6-trimethylcyclohexa-2,5-diene-1,4-dione]			< 100 nM	
COCCCCCCC1=C(C)C(=O)C(C)=C(C)C1=O [Example 15, 2-(6-methoxyhexyl)-3,5,6-trimethylcyclohexa-2,5-diene-1,4-dione]			100 to 500 nM	
CCOCCCCCCCCCCC1=C(C)C(=O)C(C)=C(C)C1=O [Example 16, 2-(10-ethoxydecyl)-3,5,6-trimethylcyclohexa-2,5-diene-1,4-dione]		< 100 nM		
CCCOCCCCCCCCC1=C(C)C(=O)C(C)=C(C)C1=O [Example 17, 2,3,5-trimethyl-6-(8-propoxyoctyl)cyclohexa-2,5-diene-1,4-dione]		< 100 nM		
CC1=C(C)C(=O)C(CCCCCCCCOCC(C)C)=C(C)C1=O [Example 18, 2-(8-isobutoxyoctyl)-3,5,6-trimethylcyclohexa-2,5-diene-1,4-dione]			< 100 nM	
CC1=C(C)C(=O)C(CCCCCCCCOc2cccnc2C)=C(C)C1=O [Example 19, 2,3,5-trimethyl-6-(8-((2-methylpyridin-3-yl)oxy)octyl)cyclohexa-2,5-diene-1,4-dione]			100 to 500 nM	
CC1=C(C)C(=O)C(CCCCCCCCCCN(C)CC(C)C)=C(C)C1=O [Example 20, 2-(10-(isobutyl(methyl)amino)decyl)-3,5,6-trimethylcyclohexa-2,5-diene-1,4-dione]		< 100 nM		
CC1=C(C)C(=O)C(CCCCCCCCCCN2CCCC2)=C(C)C1=O [Example 21, 2,3,5-trimethyl-6-(10-(pyrrolidin-1-yl)decyl)cyclohexa-2,5-diene-1,4-dione]		< 100 nM		
CC1=C(C)C(=O)C(CCCCCCCCCCNCC(C)C)=C(C)C1=O [Example 22, 2-(10-(isobutylamino)decyl)-3,5,6-trimethylcyclohexa-2,5-diene-1,4-dione]			< 100 nM	
CC(C)=CCC/C(C)=C/CC/C(C)=C/CC/C(C)=C/CC1=C(C)C(=O)c2ccccc2C1=O [Vitamin K2, reference compound]				rescue of cystine deprivation-induced reduction in cell viability ([1]; 1 micromolar, defined as 100% relative viability): completely rescued
